Consider one compound from article PMC3607207 (ACS combinatorial science, 2012).

The test deals with mu opioid receptor (Rattus norvegicus, UniProt P33535). As to the kind of experiment: competitive radio receptor binding assay, [3H]DAMGO, rat brain membranes. Conditions: 1 mg/ml (14.7 mM) imidazole.

“Also recorded” adds a separate entry of the source.

Chain of mu opioid receptor (P33535 whole entry): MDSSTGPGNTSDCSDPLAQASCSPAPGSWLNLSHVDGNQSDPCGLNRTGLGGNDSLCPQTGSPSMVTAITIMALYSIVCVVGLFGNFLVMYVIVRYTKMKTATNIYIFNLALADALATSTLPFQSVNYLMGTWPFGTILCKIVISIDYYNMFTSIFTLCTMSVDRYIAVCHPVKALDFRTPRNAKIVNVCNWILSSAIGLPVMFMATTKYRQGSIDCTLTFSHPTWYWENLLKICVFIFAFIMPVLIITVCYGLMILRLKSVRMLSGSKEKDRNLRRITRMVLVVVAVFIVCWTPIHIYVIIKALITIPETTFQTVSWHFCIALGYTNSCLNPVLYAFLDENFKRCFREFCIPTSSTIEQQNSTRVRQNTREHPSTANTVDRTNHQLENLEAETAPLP

For the compound `c1c[nH]cn1` [imidazole], the “effect on binding of 3H-DAMGO to the mu opioid receptor” value is “negligible inhibition; also recorded: No significant effect”.
